Test results: US8993574B2, “Pyrrole antifungal agents” (F2G Ltd, priority 2008, dated 2015)
Values after ≈ are worked out from the molar mass of the structure shown.

Legend:
Type in all cases: cell-based
[1] = test system: Aspergillus fumigatus AF293; test: MIC, YAG medium; conditions: 24 h at 35° C, MIC banded into grades; for MIC: Aspergillus fumigatus, read-out: MIC grade, A. fumigatus
How it was run: (§1)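 Spores harvested from 5-day Sabouraud agar cultures were inoculated at 1−2×10^4 cfu/mL into YAG medium (1% glucose, 1% ammonium chloride, 0.5% yeast extract) over doubling drug dilutions spanning 50-0.05 mg/L, or 0.5-0.0005 mg/L on repeat. After 24 h at 35° C, OD485 was read. MIC is the lowest concentration inhibiting growth >70% versus drug-free control, in mg/L.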

Aspergillus flavus [2] = test: MIC, YAG medium; conditions: 24 h at 35° C, MIC banded into grades; for MIC: Aspergillus flavus, 24 h, read-out: MIC grade, A. flavus
How it was run: as §1

[3] = test system: Aspergillus fumigatus AF210; test: MIC, YAG medium; conditions: 24 h at 35° C, MIC banded into grades; for MIC: Aspergillus fumigatus, read-out: MIC grade, A. fumigatus 210
How it was run: as §1

Aspergillus terreus AT4 [4] = test: MIC, YAG medium; conditions: 24 h at 35° C, MIC banded into grades; for MIC: Aspergillus terreus, read-out: MIC grade, A. terreus
How it was run: as §1

Aspergillus terreus AT49 [5] = test: MIC, YAG medium; conditions: 24 h at 35° C, MIC banded into grades; for MIC: Aspergillus terreus, read-out: MIC grade, A. terreus 49
How it was run: as §1

Aspergillus niger [6] = test: MIC, YAG medium; conditions: 24 h at 35° C, MIC banded into grades; for MIC: Aspergillus niger, read-out: MIC grade, A. niger
How it was run: as §1

[7] = test system: Aspergillus fumigatus AF293; test: MIC, RPMI medium; conditions: for MIC: Aspergillus fumigatus, AF293, MIC banded into grades, read-out: MIC grade, A. fumigatus; for MIC grade, A. fumigatus: MIC banded into grades
How it was run: (§2)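 OD485-based endpoint after 24-48 h/35° C; MIC = lowest concentration, >80% inhibition relative to drug-free. RPMI/2% glucose/0.135 M MOPS pH 7.0; 1−2×10^4 cfu/mL; range 50-0.05 mg/L.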

Aspergillus flavus [8] = test: MIC, RPMI medium; conditions: MIC banded into grades; for MIC: Aspergillus flavus, read-out: MIC grade, A. flavus
How it was run: as §2

[9] = test system: Aspergillus fumigatus AF210; test: MIC, RPMI medium; conditions: for MIC: Aspergillus fumigatus, AF210, MIC banded into grades, read-out: MIC grade, A. fumigatus 210; for MIC grade, A. fumigatus 210: MIC banded into grades
How it was run: as §2

Aspergillus terreus AT4 [10] = test: MIC, RPMI medium; conditions: for MIC: Aspergillus terreus, AT4, MIC banded into grades, read-out: MIC grade, A. terreus; for MIC grade, A. terreus: MIC banded into grades
How it was run: as §2

Aspergillus terreus AT49 [11] = test: MIC, RPMI medium; conditions: for MIC: Aspergillus terreus, AT49, MIC banded into grades, read-out: MIC grade, A. terreus 49; for MIC grade, A. terreus 49: MIC banded into grades
How it was run: as §2

Aspergillus niger [12] = test: MIC, RPMI medium; conditions: MIC banded into grades; for MIC: Aspergillus niger, read-out: MIC grade, A. niger
How it was run: as §2

| Structure (SMILES) | MIC [1] | MIC (Aspergillus flavus [2]) | MIC [3] | MIC (Aspergillus terreus AT4 [4]) | MIC (Aspergillus terreus AT49 [5]) | MIC (Aspergillus niger [6]) | MIC [7] | MIC (Aspergillus flavus [8]) | MIC [9] | MIC (Aspergillus terreus AT4 [10]) | MIC (Aspergillus terreus AT49 [11]) | MIC (Aspergillus niger [12]) | further results |
| --- | --- | --- | --- | --- | --- | --- | --- | --- | --- | --- | --- | --- | --- |
| Cc1cc(-c2ccccc2)c(C(=O)C(=O)Nc2ccc(N3CCN(c4ccccn4)CC3)cc2F)n1C [Example 95, 2-(1,5-Dimethyl-3-phenyl-1H-pyrrol-2-yl)-N-[2-fluoro-4-(4-pyridin-2-yl-piperazin-1-yl)-phenyl]-2-oxo-acetamide] | < 1 µg/mL | < 1 µg/mL | < 1 µg/mL | < 1 µg/mL | < 1 µg/mL | < 1 µg/mL | < 1 µg/mL | < 1 µg/mL | < 1 µg/mL | < 1 µg/mL | < 1 µg/mL | < 1 µg/mL | – |
| COCCn1c(C)cc(-c2ccccc2)c1C(=O)C(=O)Nc1ccc(N2CCN(c3ccccn3)CC2)cc1F [Example 96, N-[2-Fluoro-4-(4-pyridin-2-yl-piperazin-1-yl)-phenyl]-2-[1-(2-methoxy-ethyl)-5-methyl-3-phenyl-1H-pyrrol-2-yl]-2-oxo-acetamide] | < 1 µg/mL | < 1 µg/mL | < 1 µg/mL | < 1 µg/mL | < 1 µg/mL | < 1 µg/mL | < 1 µg/mL | 1 to 10 µg/mL (≈ 1.85 to 18.5 µM) | < 1 µg/mL | < 1 µg/mL | 1 to 10 µg/mL (≈ 1.85 to 18.5 µM) | < 1 µg/mL | – |
| Cc1cc(C)nc(N2CCN(c3ccc(NC(=O)C(=O)c4c(-c5ccccc5)cc(C)n4CCOC(C)C)cc3)CC2)c1 [Example 97, N-{4-[4-(4,6-Dimethyl-pyridin-2-yl)-piperazin-1-yl]-phenyl}-2-[1-(2-isopropoxy-ethyl)-5-methyl-3-phenyl-1H-pyrrol-2-yl]-2-oxo-acetamide] | 1 to 10 µg/mL (≈ 1.72 to 17.2 µM) | 1 to 10 µg/mL (≈ 1.72 to 17.2 µM) | < 1 µg/mL | 1 to 10 µg/mL (≈ 1.72 to 17.2 µM) | 1 to 10 µg/mL (≈ 1.72 to 17.2 µM) | 1 to 10 µg/mL (≈ 1.72 to 17.2 µM) | < 1 µg/mL | 1 to 10 µg/mL (≈ 1.72 to 17.2 µM) | 1 to 10 µg/mL (≈ 1.72 to 17.2 µM) | 1 to 10 µg/mL (≈ 1.72 to 17.2 µM) | 1 to 10 µg/mL (≈ 1.72 to 17.2 µM) | 1 to 10 µg/mL (≈ 1.72 to 17.2 µM) | – |
| COC(=O)Cn1c(C)cc(-c2ccccc2)c1C(=O)C(=O)Nc1ccc(N2CCN(c3cc(C)cc(C)n3)CC2)cc1Cl [Example 98, (2-{2-Chloro-4-[4-(4,6-dimethyl-pyridin-2-yl)-piperazin-1-yl]-phenylaminooxalyl}-5-methyl-3-phenyl-pyrrol-1-yl)-acetic acid methyl ester] | – | – | – | – | – | – | – | – | – | – | – | – | MIC grade, A. fumigatus [1]: 3 (A grade of 3 represents an MIC of less than 1 mg/L); MIC grade, A. flavus (Aspergillus flavus [2]): 1 (a grade of 1 represents an MIC of greater than 10 mg/L); MIC grade, A. fumigatus 210 [3]: 3 (A grade of 3 represents an MIC of less than 1 mg/L); MIC grade, A. terreus (Aspergillus terreus AT4 [4]): 3 (A grade of 3 represents an MIC of less than 1 mg/L); MIC grade, A. terreus 49 (Aspergillus terreus AT49 [5]): 3 (A grade of 3 represents an MIC of less than 1 mg/L); MIC grade, A. niger (Aspergillus niger [6]): 3 (A grade of 3 represents an MIC of less than 1 mg/L); MIC grade, A. fumigatus [7]: 3 (A grade of 3 represents an MIC of less than 1 mg/L); MIC grade, A. flavus (Aspergillus flavus [8]): 2 (A grade of 2 represents an MIC of from 1 to 10 mg/L); MIC grade, A. fumigatus 210 [9]: 3 (A grade of 3 represents an MIC of less than 1 mg/L); MIC grade, A. terreus (Aspergillus terreus AT4 [10]): 3 (A grade of 3 represents an MIC of less than 1 mg/L); MIC grade, A. terreus 49 (Aspergillus terreus AT49 [11]): 3 (A grade of 3 represents an MIC of less than 1 mg/L); MIC grade, A. niger (Aspergillus niger [12]): 3 (A grade of 3 represents an MIC of less than 1 mg/L) |
| Cc1cc(-c2ccccc2)c(C(=O)C(=O)Nc2ccc(N3CCCC3)nc2)n1C [Example 99, 2-(1,5-Dimethyl-3-phenyl-1H-pyrrol-2-yl)-2-oxo-N-(6-pyrrolidin-1-yl-pyridin-3-yl)-acetamide] | 1 to 10 µg/mL (≈ 2.57 to 25.7 µM) | < 1 µg/mL | < 1 µg/mL | < 1 µg/mL | < 1 µg/mL | 1 to 10 µg/mL (≈ 2.57 to 25.7 µM) | < 1 µg/mL | < 1 µg/mL | 1 to 10 µg/mL (≈ 2.57 to 25.7 µM) | < 1 µg/mL | < 1 µg/mL | < 1 µg/mL | – |
| Cc1cc(-c2ccccc2)c(C(=O)C(=O)Nc2ccc(-c3ncco3)cc2F)n1C [Example 100, 2-(1,5-Dimethyl-3-phenyl-1H-pyrrol-2-yl)-N-[2-fluoro-4-oxazol-2-yl-phenyl)-2-oxo-acetamide] | < 1 µg/mL | < 1 µg/mL | 1 to 10 µg/mL (≈ 2.48 to 24.8 µM) | < 1 µg/mL | < 1 µg/mL | < 1 µg/mL | < 1 µg/mL | < 1 µg/mL | 1 to 10 µg/mL (≈ 2.48 to 24.8 µM) | < 1 µg/mL | < 1 µg/mL | < 1 µg/mL | – |
| Cc1cc(-c2ccccc2)c(C(=O)C(=O)Nc2ccc(N3CCOCC3)cc2F)n1C [Example 101, 2-(1,5-Dimethyl-3-phenyl-1H-pyrrol-2-yl)-N-(2-fluoro-4-morpholin-4-yl-phenyl)-2-oxo-acetamide] | < 1 µg/mL | < 1 µg/mL | < 1 µg/mL | < 1 µg/mL | < 1 µg/mL | < 1 µg/mL | < 1 µg/mL | < 1 µg/mL | < 1 µg/mL | < 1 µg/mL | < 1 µg/mL | < 1 µg/mL | – |
| Cc1cc(C)nc(N2CCN(c3ccc(NC(=O)C(=O)c4c(-c5ccccc5)cc(C)n4Cc4ccncc4)cc3)CC2)c1 [Example 102, N-{4-[4-(4,6-Dimethyl-pyridin-2-yl)-piperazin-1-yl]-phenyl}-2-(5-methyl-3-phenyl-1-pyridin-4-ylmethyl-1H-pyrrol-2-yl)-2-oxo-acetamide] | 1 to 10 µg/mL (≈ 1.71 to 17.1 µM) | > 10 µg/mL | > 10 µg/mL | > 10 µg/mL | > 10 µg/mL | > 10 µg/mL | > 10 µg/mL | > 10 µg/mL | > 10 µg/mL | > 10 µg/mL | > 10 µg/mL | > 10 µg/mL | – |
| Cc1cc(-c2ccccc2)c(C(=O)C(=O)Nc2ccc(N3CCN(CC(C)C)CC3)cc2F)n1C [Example 105, 2-(1,5-Dimethyl-3-phenyl-1H-pyrrol-2-yl)-N-[2-fluoro-4-(4-isobutyl-piperazin-1-yl)-phenyl]-2-oxo-acetamide] | < 1 µg/mL | < 1 µg/mL | < 1 µg/mL | < 1 µg/mL | < 1 µg/mL | < 1 µg/mL | < 1 µg/mL | < 1 µg/mL | < 1 µg/mL | < 1 µg/mL | < 1 µg/mL | < 1 µg/mL | – |
| Cc1cc(-c2ccccc2)c(C(=O)C(=O)Nc2ccc(N3CCCCC3)cc2F)n1C [Example 106, 2-(1,5-Dimethyl-3-phenyl-1H-pyrrol-2-yl)-N-(2-fluoro-4-piperidin-1-yl-phenyl)-2-oxo-acetamide] | < 1 µg/mL | < 1 µg/mL | < 1 µg/mL | < 1 µg/mL | < 1 µg/mL | < 1 µg/mL | < 1 µg/mL | < 1 µg/mL | < 1 µg/mL | < 1 µg/mL | < 1 µg/mL | < 1 µg/mL | – |
| COC(=O)Cn1ccc(C2CCC2)c1C(=O)C(=O)Nc1ccc(N2CCN(c3cc(C)cc(C)n3)CC2)cc1 [Example 107, (3-Cyclobutyl-2-{4-[4-(4,6-dimethyl-pyridin-2-yl)-piperazin-1-yl]-phenylaminooxalyl}-pyrrol-1-yl)-acetic acid methyl ester] | – | – | – | – | – | – | – | – | – | – | – | – | MIC grade, A. fumigatus [1]: 3 (A grade of 3 represents an MIC of less than 1 mg/L); MIC grade, A. flavus (Aspergillus flavus [2]): 1 (a grade of 1 represents an MIC of greater than 10 mg/L); MIC grade, A. fumigatus 210 [3]: 3 (A grade of 3 represents an MIC of less than 1 mg/L); MIC grade, A. terreus (Aspergillus terreus AT4 [4]): 1 (a grade of 1 represents an MIC of greater than 10 mg/L); MIC grade, A. terreus 49 (Aspergillus terreus AT49 [5]): 1 (a grade of 1 represents an MIC of greater than 10 mg/L); MIC grade, A. niger (Aspergillus niger [6]): 1 (a grade of 1 represents an MIC of greater than 10 mg/L); MIC grade, A. fumigatus [7]: 3 (A grade of 3 represents an MIC of less than 1 mg/L); MIC grade, A. flavus (Aspergillus flavus [8]): 1 (a grade of 1 represents an MIC of greater than 10 mg/L); MIC grade, A. fumigatus 210 [9]: 2 (A grade of 2 represents an MIC of from 1 to 10 mg/L); MIC grade, A. terreus (Aspergillus terreus AT4 [10]): 1 (a grade of 1 represents an MIC of greater than 10 mg/L); MIC grade, A. terreus 49 (Aspergillus terreus AT49 [11]): 1 (a grade of 1 represents an MIC of greater than 10 mg/L); MIC grade, A. niger (Aspergillus niger [12]): 1 (a grade of 1 represents an MIC of greater than 10 mg/L) |
| C=C(C)CN1CCN(c2ccc(NC(=O)C(=O)c3c(-c4ccccc4)cc(C)n3C)c(F)c2)CC1 [Example 108, 2-(1,5-Dimethyl-3-phenyl-1H-pyrrol-2-yl)-N-{2-fluoro-4-[4-(2-methyl-allyl)-piperazin-1-yl]-phenyl}-2-oxo-acetamide] | < 1 µg/mL | < 1 µg/mL | < 1 µg/mL | < 1 µg/mL | < 1 µg/mL | < 1 µg/mL | < 1 µg/mL | < 1 µg/mL | < 1 µg/mL | < 1 µg/mL | < 1 µg/mL | < 1 µg/mL | – |
